Source: patent US20250032568A1, “TRADITIONAL CHINESE MEDICINE COMPOSITION AND TRADITIONAL CHINESE MEDICINE DECOCTION FOR TREATING GASTROESOPHAGEAL REFLUX DISEASE (GERD), AND PREPARATION METHOD AND USE THEREOF” (AFFILIATED HOSPITAL OF JIANGXI UNIVERSITY OF TRADITIONAL …, priority 2023, published 2025)

Assays:
Type in all cases: in vivo, human
[1] = tested on: gastroesophageal reflux disease (GERD); experiment: Clinical efficacy (total effective rate) in GERD patients; details: 40 per group; for Efficacy (total effective rate): (Recovery+Significant effect+Effective)/total number of cases
Protocol: (§1) In this example, 80 patients who were diagnosed with GERD in the inpatient and outpatient departments of the Gastroenterology Department of the Affiliated Hospital of Jiangxi University of Traditional Chinese Medicine from 2022.6.1 to 2023.2-28 and met this standard were collected, with a total effective rate of 87.5%.
(§2) Treatment group: 100 mL Bid of the traditional Chinese medicine decoction prepared in Example 1
(§3) Control group: 20 mg Bid of an esomeprazole magnesium soluble capsule

[2] = tested on: gastroesophageal reflux disease (GERD); experiment: Reflux Disease Questionnaire (RDQ) score in GERD patients; details: 40 per group, mean ± S
Protocol: as §1, §2, §3
1) Reflux Disease Questionnaire (RDQ)
RDQ is currently the most recognized and widely used diagnostic scale for GERD in the world.
The maximum score for frequency and symptom severity is 40 points, and the GERD is diagnosed when the RDQ score is >12 points.
RDQ scoring criteria: a. Scoring based on the frequency of symptom onset: based on the weekly frequency of four symptoms: heartburn, regurgitation, non-cardiac chest pain, and acid reflux, “never”, “1 week <1 d”, “1 d per 1 week”, “2-3 d per 1 week”, “4-5 d per 1 week”, and “almost every day” were scored as 0, 1, 2, 3, 4, and 5 points, respectively, with a maximum of 20 points. b. […]

[3] = tested on: gastroesophageal reflux disease (GERD); experiment: TCM symptom scoring in GERD patients; details: 40 per group, mean ± S
Protocol: as §1, §2, §3
3) TCM symptom scoring: referring to the “Guiding Principles for Clinical Research of New Traditional Chinese Medicines” for scoring. The scoring criteria are as follows: primary symptoms including acid reflux, heartburn, belching and reflux; the secondary symptoms including retrosternal burning pain, throat discomfort, bitter mouth, nausea. There are 4 levels according to none, mild, moderate, and severe. The primary symptoms are recorded as 0, 2, 4 and 6 points, respectively, while the secondary symptoms are recorded as 0, 1, 2 and 3 points, respectively.

[4] = decoction 100 mL Bid or esomeprazole capsule 20 mg Bid, after the test

Compound: COc1ccc2[n-]c([S+]([O-])Cc3ncc(C)c(OC)c3C)nc2c1.COc1ccc2[n-]c([S+]([O-])Cc3ncc(C)c(OC)c3C)nc2c1.[Mg+2] (stereo not drawn) [esomeprazole magnesium soluble capsule, esomeprazole magnesium]
- Efficacy (total effective rate) ([1]; listed as Control): 82.50%
- Efficacy (total effective rate) ([1]; listed as control group): 82.5%
- Effective (number of patients) [1, 4]: 23
- Invalid (number of patients) [1, 4]: 7
- Recovery (number of patients) [1, 4]: 4
- Significant effect (number of patients) [1, 4]: 6
- RDQ score after treatment [2]: 13.73 ± 4.59^[4]
- TCM symptom score after treatment ([3]; after treatment): 8.43 ± 4.29^[4]
- TCM symptom score before treatment ([3]; baseline): 17.85 ± 4.07^[2]
